According to patent publication US4520031A, “Method for reducing toxic effects of methyl-glyoxal bis-guanylhydrazone” (priority 1982, dated 1985):

Assay: Solubility of MGBG salts
Format: physicochemical
Description: It is necessary to administer MGBG in a salt form to assure solubility of drug in the administration of fluid such as 5% (w/v) dextrose in water. […] Available MGBG-salt complexes include but are not limited to the dihydrochloride (NSC-32946) and the diacetate (NSC-30689).

In the case of `CC(C=NNC(=N)N)=NNC(=N)N`, the “solubility relative to dihydrochloride or diacetate salts” value is reported as “not as soluble as the dihydrochloride or diacetate salts”.
